Data published in patent publication US11851391B2, “Antifungal compounds and methods of forming the same” (University of Kentucky Research Foundation, priority 2018, dated 2023).
Values after ≈ are worked out from the molar mass of the structure shown. “Also recorded” adds a separate entry of the source. Read-outs that look alike come from different tables or passages of the source.

Legend:
[1] = Solubility of the compounds; format: physicochemical
[2] = tested on: various yeast strains and filamentous fungi (strains A-M); experiment: Antifungal activity over the whole panel (summary of MIC data); format: cell-based, Candida and Aspergillus strains; conditions: for MIC: against all fungal strains tested, with named exceptions, read-out: antifungal activity class based on MIC values; for antifungal activity (in words): over the fungal strains tested, based on MIC data of Table 1
Procedure: (§1) The activity of N,N′-diaryl-bishydrazones 7-22 was tested against a panel of seven strains of C. albicans: ATCC 10231(R) (A), ATCC 64124(R) (B), ATCC MYA-2876(S) (C), ATCC 90819(R) (D), ATCC MYA-2310(S) (E), ATCC MYA-1237(R) (F), and ATCC MYA-1003(R) (G). The activity of these bishydrazones 7-22 was also explored against a panel of three non-albicans Candida strains: C. glabrata ATCC 2001 (H), C. krusei ATCC 6258 (I), and C. parapsilosis ATCC 22019 (J). Finally, the activity of these bishydrazones 7-22 was explored against three Aspergillus strains: A. flavus ATCC MYA-3631 (K), A. nidulans ATCC 38163 (L), and A. terreus ATCC MYA-3633 (M).
(§2) The MIC values of compounds 7a-24c against yeast cells (strains A-J) were determined in 96-well plates as described in the CLSI document M27-A3 with minor modifications. A single colony of freshly prepared yeast cells was used to inoculate 5 mL of yeast extract peptone dextrose (YPD) broth prior to incubation overnight with shaking at 200 rpm at 35° C. From the actively growing yeast culture, 100 μL were then transferred to 900 μL of sterile ddH2O and re-adjusted to achieve OD600 of 0.12 (˜1×10^6 CFU/mL). The cell suspension was further diluted to achieve 2-4×10^3 CFU/mL in RPMI 1640 medium. […] The final concentration of DMSO was ensured to be <1.25% in all experiments. The MIC values for compounds 7a-24c and CAS were defined as the minimum drug concentration that yielded complete inhibition (also known as MIC-0).
(§3) Similarly, the MIC values of compounds 7a-24c, as well as that of the two control drugs against filamentous fungi (strains K-M) were determined as previously described in CLSI document M38-A2. Spores were harvested from sporulating cultures growing on potato dextrose agar (PDA) by filtration through sterile glass wool and enumerated by using a hemocytometer to obtain the desired inoculum size. […] Spore suspensions were added to the wells to afford a final concentration of 5×10^5 CFU/mL. The plates were incubated at 35° C. for 48 h. The MIC values of compounds 7a-24c and CAS against filamentous fungi were based on the complete inhibition of growth when compared to the growth control (MIC-0). […] Each test was performed in triplicate.

[3] = tested on: C. albicans ATCC MYA-2876(S) (strain C); experiment: MIC determination, in vitro antifungal assay (CLSI M27-A3); format: cell-based, Candida albicans; conditions: Candida albicans, 48 h, MIC-0, 48 h at 35° C., read-out: MIC
Procedure: as §1
(§4) Candida albicans ATCC 10231 (A), C. albicans ATCC 64124 (B), and C. albicans ATCC MYA-2876 (C) were kindly provided by Dr. Jon Y. Takemoto (Utah State University, Logan, UT, USA). C. albicans ATCC 90819 (D), C. albicans ATCC MYA-2310 (E), C. albicans ATCC MYA-1237 (F), C. albicans ATCC MYA-1003 (G), Candida glabrata ATCC 2001 (H), Candida krusei ATCC 6258 (I), Candida parapsilosis ATCC 22019 (J), Aspergillus flavus ATCC MYA-3631 (K), and Aspergillus terreus ATCC MYA-3633 (M) were obtained from the American Type Culture Collection (ATCC; Manassas, VA, USA). Aspergillus nidulans ATCC 38163 (L) was received from Dr. Jon S. Thorson (University of Kentucky, Lexington, KY, USA). Filamentous fungi and yeasts were cultivated at 35° C. in RPMI 1640 medium (with 1-glutamine, without sodium biocarbonate, Sigma-Aldrich, St. Louis, MO) buffered to a pH of 7.0 with 0.165 M morpholinepropanesulfonic acid (MOPS) buffer (Sigma-Aldrich).
(§5) A single colony of freshly prepared yeast cells was used to inoculate 5 mL of yeast extract peptone dextrose (YPD) broth prior to incubation overnight with shaking at 200 rpm at 35° C. From the actively growing yeast culture, 100 μL were then transferred to 900 μL of sterile ddH2O and re-adjusted to achieve OD600 of 0.12 (˜1×10^6 CFU/mL). The cell suspension was further diluted to achieve 2-4×10^3 CFU/mL in RPMI 1640 medium. […] The final concentration of DMSO was ensured to be <1.25% in all experiments.

[4] = tested on: C. albicans ATCC MYA-1003(R) (strain G); experiment: as above; format: cell-based, Candida albicans; conditions: Candida albicans, 48 h, MIC-0, 48 h at 35° C., read-out: MIC
Procedure: as §1, §4, §5

[5] = tested on: C. albicans ATCC 64124(R) (strain B); experiment: as above; format: cell-based, Candida albicans; conditions: strain B, MIC-0, 48 h at 35° C.
Procedure: as §1, §4, §2

[6] = tested on: C. albicans ATCC MYA-1237(R) (strain F); experiment: as above; format: cell-based, Candida albicans; conditions: Candida albicans, 48 h, MIC-0, 48 h at 35° C., read-out: MIC
Procedure: as §1, §4, §2

[7] = tested on: C. albicans ATCC MYA-2310(S) (strain E); experiment: as above; format: cell-based, Candida albicans; conditions: Candida albicans, 48 h, MIC-0, 48 h at 35° C., read-out: MIC
Procedure: as §1, §4, §2

[8] = tested on: C. albicans ATCC 90819(R) (strain D); experiment: as above; format: cell-based, Candida albicans; conditions: Candida albicans, ATCC90819, 48 h, MIC-0, 48 h at 35° C., read-out: MIC
Procedure: as §1, §4, §2

[9] = tested on: Candida parapsilosis ATCC 22019 (strain J); experiment: as above; format: cell-based; conditions: Lodderomyces parapsilosis, ATCC22019, 48 h, strain J; MIC-0; 48 h at 35° C.; read-out: MIC
Procedure: as §1, §4, §2

[10] = tested on: Candida albicans ATCC 10231(R) (strain A); experiment: as above; format: cell-based; conditions: MIC-0 (no visible growth), 48 h at 35° C.
Procedure: as §1, §4, §2

[11] = tested on: Candida glabrata ATCC 2001 (strain H); experiment: as above; format: cell-based; conditions: Nakaseomyces glabratus, ATCC2001, 48 h, MIC-0, 48 h at 35° C., read-out: MIC
Procedure: as §1, §4, §5

[12] = tested on: Candida krusei ATCC 6258 (strain I); experiment: as above; format: cell-based; conditions: Pichia kudriavzevii, ATCC6258, 48 h, MIC-0, 48 h at 35° C., read-out: MIC
Procedure: as §1, §4, §5

[13] = tested on: Aspergillus flavus ATCC MYA-3631 (strain K); experiment: MIC determination against filamentous fungi (CLSI M38-A2); format: cell-based; conditions: Aspergillus flavus, 48 h, MIC-0, 48 h at 35° C., read-out: MIC
Procedure: as §1, §4, §3

[14] = tested on: Aspergillus terreus ATCC MYA-3633 (strain M); experiment: as above; format: cell-based; conditions: Aspergillus terreus, 48 h, MIC-0, 48 h at 35° C., read-out: MIC
Procedure: as §1, §4, §3

[15] = tested on: Aspergillus nidulans ATCC 38163 (strain L); experiment: as above; format: cell-based; conditions: Aspergillus nidulans, ATCC38163, 48 h, MIC-0, 48 h at 35° C., read-out: MIC
Procedure: as §1, §4, §3

[16] = Candida albicans, ATCC64124, 48 h, read-out: MIC
[17] = Candida albicans, ATCC10231, 48 h, read-out: MIC

| MIC [2] [µg/mL] | MIC [3] [µg/mL] | MIC [4] [µg/mL] | MIC [5, 16] [µg/mL] | MIC [6] [µg/mL] | MIC [7] [µg/mL] | MIC [8] [µg/mL] | MIC [9] [µg/mL] | MIC [10, 17] [µg/mL] | MIC [10] [µg/mL] | MIC [11] [µg/mL] | MIC [12] [µg/mL] | MIC [13] [µg/mL] | MIC [14] [µg/mL] | MIC [15] [µg/mL] | MIC [5] [µg/mL] | Compound | solubility (in words) [1] | antifungal activity (in words) [2] |
| --- | --- | --- | --- | --- | --- | --- | --- | --- | --- | --- | --- | --- | --- | --- | --- | --- | --- | --- |
| – | – | – | – | – | – | – | – | – | – | – | – | – | – | – | – | FC(F)(F)c1ccc(N/N=C/c2ccc(-c3cccc(/C=N/Nc4ccc(C(F)(F)F)cc4)c3)cc2)cc1 [Compound 14a] | limited solubility; also recorded: insoluble | – |
| – | – | – | – | – | – | – | – | – | – | – | – | – | – | – | – | COc1ccccc1N/N=C/c1ccc(-c2ccc(/C=N/Nc3ccccc3OC)cc2)cc1 [Compound 9b] | limited solubility; also recorded: insoluble | – |
| – | – | – | – | – | – | – | – | – | – | – | – | – | – | – | – | O=[N+]([O-])c1ccccc1N/N=C/c1ccc(-c2cccc(/C=N/Nc3ccccc3[N+](=O)[O-])c2)cc1 [Compound 8a] | limited solubility; also recorded: insoluble | – |
| – | – | – | – | – | – | – | – | – | – | – | – | – | – | – | – | O=[N+]([O-])c1ccccc1N/N=C/c1ccc(-c2ccc(/C=N/Nc3ccccc3[N+](=O)[O-])cc2)cc1 [Compound 8b] | limited solubility; also recorded: insoluble | – |
| ≥ 31.3 | > 31.3 | 31.3 (≈ 65.4 µM) | > 31.3 | > 31.3 | > 31.3 | > 31.3 | 31.3 (≈ 65.4 µM) | 15.6 (≈ 32.6 µM) | 15.6 (≈ 32.6 µM) | > 31.3 | 31.3 (≈ 65.4 µM) | > 31.3 | > 31.3 | > 31.3 | – | COc1ccccc1N/N=C(\C)c1ccc(-c2ccc(/C(C)=N/Nc3ccccc3OC)cc2)cc1 [Compound 9c] | – | – |
| ≥ 31.3 | > 31.3 | > 31.3 | > 31.3 | > 31.3 | > 31.3 | 31.3 (≈ 67.7 µM) | > 31.3 | 7.8 (≈ 16.9 µM) | 7.8 (≈ 16.9 µM) | > 31.3 | > 31.3 | > 31.3 | > 31.3 | > 31.3 | – | Fc1ccc(N/N=C/c2ccc(-c3ccc(/C=N/Nc4ccc(F)cc4F)cc3)cc2)c(F)c1 [Compound 20b] | – | – |
| ≥ 31.3 | > 31.3 | > 31.3 | > 31.3 | > 31.3 | > 31.3 | > 31.3 | > 31.3 | 15.6 (≈ 33.7 µM) | 15.6 (≈ 33.7 µM) | > 31.3 | > 31.3 | > 31.3 | > 31.3 | > 31.3 | – | Fc1cc(F)cc(N/N=C/c2ccc(-c3ccc(/C=N/Nc4cc(F)cc(F)c4)cc3)cc2)c1 [Compound 22b] | – | no activity |
| – | 31.3 (≈ 67.7 µM) | 31.3 (≈ 67.7 µM) | 15.6 (≈ 33.7 µM) | 31.3 (≈ 67.7 µM) | > 31.3 | > 31.3 | > 31.3 | 3.9 (≈ 8.43 µM) | 3.9 (≈ 8.43 µM) | > 31.3 | > 31.3 | > 31.3 | > 31.3 | > 31.3 | 15.6 (≈ 33.7 µM) | Fc1cc(F)cc(N/N=C/c2ccc(-c3cccc(/C=N/Nc4cc(F)cc(F)c4)c3)cc2)c1 [Compound 22a] | – | no activity |
| – | > 31.3 | > 31.3 | > 31.3 | > 31.3 | > 31.3 | > 31.3 | 31.3 (≈ 68.1 µM) | > 31.3 | – | > 31.3 | 31.3 (≈ 68.1 µM) | > 31.3 | 31.3 (≈ 68.1 µM) | > 31.3 | – | Clc1ccc(N/N=C/c2ccc(-c3ccc(/C=N/Nc4ccc(Cl)cc4)cc3)cc2)cc1 [Compound 18b] | – | inactive |
| – | – | – | – | – | – | – | – | – | – | – | – | – | – | – | – | COc1cccc(N/N=C/c2ccc(-c3cccc(/C=N/Nc4cccc(OC)c4)c3)cc2)c1 [Compound 11a] | limited solubility; also recorded: insoluble | – |
| – | > 31.3 | 31.3 (≈ 71.1 µM) | > 31.3 | > 31.3 | > 31.3 | > 31.3 | > 31.3 | > 31.3 | – | > 31.3 | > 31.3 | > 31.3 | 31.3 (≈ 71.1 µM) | > 31.3 | – | N#Cc1ccc(N/N=C/c2ccc(-c3ccc(/C=N/Nc4ccc(C#N)cc4)cc3)cc2)cc1 [Compound 13b] | – | inactive |
| – | – | – | – | – | – | – | – | – | – | – | – | – | – | – | – | COc1ccccc1N/N=C/c1ccc(-c2cccc(/C=N/Nc3ccccc3OC)c2)cc1 [Compound 9a] | limited solubility; also recorded: insoluble | – |
| – | – | – | – | – | – | – | – | – | – | – | – | – | – | – | – | COc1cccc(N/N=C/c2ccc(-c3ccc(/C=N/Nc4cccc(OC)c4)cc3)cc2)c1 [Compound 11b] | limited solubility; also recorded: insoluble | – |
